Inconclusive results and toxic doses are left out. Cut-off read from the data, not from the text of the source: active = T/C of 150% or more; inactive = T/C below 125%. Square brackets hold non-standard residues; d marks the D form. Peptide text beside a SMILES is read from it. Ac5c = NC1(C(=O)O)CCCC1
Test system: L1210 leukemia ip in BDF1 mice, survival T/C
Test: NCI In Vivo Anticancer Drug Screen. Data for tumor model L1210 Leukemia (intraperitoneal) in B6D2F1 (BDF1) mice
Details: endpoint: mean survival time, higher = longer survival
Procedure, shortened: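 Tumor cells were implanted, animals were treated, and survival was followed. The result divides the treated measurement by the vehicle-control measurement.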

[1] = dose: 50.0 mg/kg/injection, schedule: Q01DX009 (ip), vehicle: saline
[2] = dose: 100.0 mg/kg/injection, schedule: Q04DX003 (ip), vehicle: saline
[3] = dose: 200.0 mg/kg/injection, schedule: Q04DX003 (ip), vehicle: saline
[4] = dose: 400.0 mg/kg/injection, schedule: Q04DX003 (ip), vehicle: saline
[5] = dose: 100.0 mg/kg/injection, schedule: Q01DX009 (ip), vehicle: saline
[6] = dose: 200.0 mg/kg/injection, schedule: Q01DX009 (ip), vehicle: saline
[7] = dose: 400.0 mg/kg/injection, schedule: Q01DX009 (ip), vehicle: saline
[8] = dose: 100.0 mg/kg/injection, schedule: Q04DX002 (ip), vehicle: Klucel (hydroxypropylcellulose) (HPC)
[9] = dose: 200.0 mg/kg/injection, schedule: Q04DX002 (ip), vehicle: Klucel (hydroxypropylcellulose) (HPC)
[10] = dose: 100.0 mg/kg/injection, schedule: Q04DX003 (ip), vehicle: Klucel (hydroxypropylcellulose) (HPC)
[11] = dose: 200.0 mg/kg/injection, schedule: Q04DX003 (ip), vehicle: Klucel (hydroxypropylcellulose) (HPC)
[12] = dose: 400.0 mg/kg/injection, schedule: Q04DX003 (ip), vehicle: Klucel (hydroxypropylcellulose) (HPC)
[13] = dose: 100.0 mg/kg/injection, schedule: Q01DX001 (ip), vehicle: saline with Tween-80
[14] = dose: 200.0 mg/kg/injection, schedule: Q01DX001 (ip), vehicle: saline with Tween-80
[15] = dose: 400.0 mg/kg/injection, schedule: Q01DX001 (ip), vehicle: saline with Tween-80
[16] = dose: 100.0 mg/kg/injection, schedule: Q04DX003 (ip), vehicle: saline with Tween-80
[17] = dose: 200.0 mg/kg/injection, schedule: Q04DX003 (ip), vehicle: saline with Tween-80
[18] = dose: 400.0 mg/kg/injection, schedule: Q04DX003 (ip), vehicle: saline with Tween-80

Measured: T/C

Cc1cccc(NC(=O)N2CCN(c3ccccc3)CC2)c1
inactive: dose: 50.0 mg/kg/injection, schedule: Q01DX001 (ip), vehicle: carboxymethylcellulose (CMC) 106 % of control | dose: 100.0 mg/kg/injection, schedule: Q01DX001 (ip), vehicle: carboxymethylcellulose (CMC) 101 % of control | dose: 200.0 mg/kg/injection, schedule: Q01DX001 (ip), vehicle: carboxymethylcellulose (CMC) 101 % of control | dose: 400.0 mg/kg/injection, schedule: Q01DX001 (ip), vehicle: carboxymethylcellulose (CMC) 104 % of control

C=C[C@@](C)(O)CC/C=C(/C)CCC=C(C)C
inactive: dose: 6.0 mg/kg/injection, schedule: Q01DX009 (ip), vehicle: saline 112 % of control | dose: 12.0 mg/kg/injection, schedule: Q01DX009 (ip), vehicle: saline 100 % of control | dose: 25.0 mg/kg/injection, schedule: Q01DX009 (ip), vehicle: saline 101 % of control | [1] 106 % of control | [2] 97 % of control | [3] 96 % of control | [4] 102 % of control

O=C(O)C12CCC(CC1)C2
inactive: [1] 106 % of control | [5] 110 % of control | [6] 112 % of control | [7] 96 % of control

COC(=O)C1C(O)C(C)C(O)C(C)C=C(C)C2=C3C(=C(C)C(=O)c4c(O)c(c(C)c(OC(C)=O)c43)NC(=O)C(C)=C/C=C\C(C)C(O)C(C)C1O)OCO2 (configuration not stated)
inactive: dose: 20.0 mg/kg/injection, schedule: Q01DX009 (ip), vehicle: saline 105 % of control | dose: 40.0 mg/kg/injection, schedule: Q01DX009 (ip), vehicle: saline 100 % of control | dose: 80.0 mg/kg/injection, schedule: Q01DX009 (ip), vehicle: saline 102 % of control | [8] 96 % of control | dose: 160.0 mg/kg/injection, schedule: Q01DX009 (ip), vehicle: saline 107 % of control | [9] 90 % of control

O=C(Nc1ccc(Cl)cc1)NC1CCCCC1
inactive: [10] 92 % of control | [11] 92 % of control | [12] 92 % of control

O=C(O)C12CCC(CC1Br)C2 (configuration not stated)
inactive: dose: 75.0 mg/kg/injection, schedule: Q01DX001 (ip), vehicle: acetone 105 % of control | [5] 102 % of control | dose: 150.0 mg/kg/injection, schedule: Q01DX001 (ip), vehicle: acetone 106 % of control | [6] 110 % of control | dose: 300.0 mg/kg/injection, schedule: Q01DX001 (ip), vehicle: acetone 102 % of control | [7] 102 % of control

CCOC(=O)C1=C(C)C(C)C(=O)NC1=O (configuration not stated)
inactive: [13] 100 % of control | [14] 101 % of control | dose: 200.0 mg/kg/injection, schedule: Q01DX009 (ip), vehicle: saline with Tween-80 110 % of control | [15] 96 % of control | dose: 400.0 mg/kg/injection, schedule: Q01DX009 (ip), vehicle: saline with Tween-80 96 % of control

[NH-]C(CCC(N)=O)C(=O)O.[NH-]C(CCC(N)=O)C(=O)O.[Pd+2] (configuration not stated)
inactive: dose: 100.0 mg/kg/injection, schedule: Q04DX002 (ip), vehicle: saline 102 % of control | [2] 98 % of control | dose: 200.0 mg/kg/injection, schedule: Q04DX002 (ip), vehicle: saline 102 % of control | [3] 92 % of control | dose: 400.0 mg/kg/injection, schedule: Q04DX002 (ip), vehicle: saline 102 % of control

Cc1ccc(CC(C)(O)CC(C)(O)Cc2ccc(C)cc2)cc1 (configuration not stated)
inactive: [2] 100 % of control | [3] 93 % of control | [4] 93 % of control

NC1=NC(Cc2ccccc2)N(c2ccc(Cl)cc2)C(N)=N1 (configuration not stated)
inactive: dose: 14.0 mg/kg/injection, schedule: Q01DX009 (ip), vehicle: steriod suspending solution 98 % of control | dose: 24.0 mg/kg/injection, schedule: Q01DX009 (ip), vehicle: steriod suspending solution 98 % of control | dose: 39.0 mg/kg/injection, schedule: Q01DX009 (ip), vehicle: steriod suspending solution 98 % of control | dose: 65.0 mg/kg/injection, schedule: Q01DX009 (ip), vehicle: steriod suspending solution 96 % of control

Cc1ccc(C(=O)OCc2ccccc2CN(C)C)cc1
inactive: [8] 94 % of control | [9] 94 % of control | dose: 400.0 mg/kg/injection, schedule: Q04DX002 (ip), vehicle: Klucel (hydroxypropylcellulose) (HPC) 102 % of control

NNc1cnc2ccccc2n1
inactive: dose: 100.0 mg/kg/injection, schedule: Q01DX009 (ip), vehicle: saline sonified 90 % of control | [16] 101 % of control | [17] 97 % of control | [18] 113 % of control

Cc1cc(C)c(C(C)C)cc1C(C)C
inactive: [2] 100 % of control | [3] 100 % of control | [4] 90 % of control

NC1(C(=O)NCC(=O)O)CCCC1 (H-[Ac5c]-Gly-OH)
inactive: [2] 104 % of control | [3] 100 % of control

Nc1nc(SCc2ccccc2)c2ncnnc2n1
inactive: [13] 97 % of control | [14] 103 % of control | [15] 98 % of control

CC(=O)OC1CCC2(C)C(CCC3C2CCC2(C)C(c4ccc(=O)oc4)C(OC(C)=O)CC32O)C1 (configuration not stated)
inactive: dose: 1.0 mg/kg/injection, schedule: Q01DX001 (sc), vehicle: steriod suspending solution 96 % of control | dose: 2.0 mg/kg/injection, schedule: Q01DX001 (sc), vehicle: steriod suspending solution 98 % of control | dose: 4.0 mg/kg/injection, schedule: Q01DX001 (sc), vehicle: steriod suspending solution 93 % of control | dose: 8.0 mg/kg/injection, schedule: Q01DX001 (sc), vehicle: steriod suspending solution 109 % of control | dose: 12.0 mg/kg/injection, schedule: Q01DX001 (sc), vehicle: steriod suspending solution 98 % of control | dose: 16.0 mg/kg/injection, schedule: Q01DX001 (sc), vehicle: steriod suspending solution 101 % of control | dose: 32.0 mg/kg/injection, schedule: Q01DX001 (sc), vehicle: steriod suspending solution 108 % of control | dose: 64.0 mg/kg/injection, schedule: Q01DX001 (sc), vehicle: steriod suspending solution 103 % of control | dose: 128.0 mg/kg/injection, schedule: Q01DX001 (sc), vehicle: steriod suspending solution 111 % of control

CCCCSC1=NCCCS1
inactive: dose: 75.0 mg/kg/injection, schedule: Q01DX001 (ip), vehicle: other 104 % of control | dose: 150.0 mg/kg/injection, schedule: Q01DX001 (ip), vehicle: other 111 % of control | dose: 300.0 mg/kg/injection, schedule: Q01DX001 (ip), vehicle: other 102 % of control

Cn1ccc(=O)[nH]c1=O
inactive: [10] 96 % of control | [11] 89 % of control | [12] 115 % of control

CCOC(=O)C1C(c2ccccc2)C1c1ccc(C)cc1 (configuration not stated)
inactive: dose: 25.0 mg/kg/injection, schedule: Q04DX002 (ip), vehicle: saline with Tween-80 103 % of control | dose: 50.0 mg/kg/injection, schedule: Q04DX002 (ip), vehicle: saline with Tween-80 103 % of control | dose: 100.0 mg/kg/injection, schedule: Q04DX002 (ip), vehicle: saline with Tween-80 98 % of control

CCC(C)C(C1=C(O)c2ccccc2C(=O)C1=O)C1=C(O)c2ccccc2C(=O)C1=O (configuration not stated)
inactive: dose: 75.0 mg/kg/injection, schedule: Q01DX001 (ip), vehicle: carboxymethylcellulose (CMC) 97 % of control | dose: 150.0 mg/kg/injection, schedule: Q01DX001 (ip), vehicle: carboxymethylcellulose (CMC) 104 % of control

CC(=O)C(C)(O)C(C)(C)C (configuration not stated)
inactive: [5] 88 % of control | [6] 90 % of control | [7] 98 % of control

O=C1OC(=O)C2CC3OC3CC12 (configuration not stated)
inactive: dose: 50.0 mg/kg/injection, schedule: Q01DX001 (ip), vehicle: saline sonified 106 % of control | dose: 100.0 mg/kg/injection, schedule: Q01DX001 (ip), vehicle: saline sonified 96 % of control | [16] 91 % of control | dose: 200.0 mg/kg/injection, schedule: Q01DX001 (ip), vehicle: saline sonified 93 % of control | [17] 94 % of control | [18] 108 % of control

CCO/C=C/C(=O)NC(=O)NC1CC(O)C(CO)C1 (configuration not stated)
inactive: [1] 104 % of control | [5] 107 % of control | [6] 93 % of control

COc1cc(OC)c(N=Nc2sc(N)nc2C)cc1Cl
inactive: dose: 75.0 mg/kg/injection, schedule: Q01DX001 (ip), vehicle: saline 92 % of control | dose: 150.0 mg/kg/injection, schedule: Q01DX001 (ip), vehicle: saline 97 % of control | dose: 300.0 mg/kg/injection, schedule: Q01DX001 (ip), vehicle: saline 94 % of control

— PubChem BioAssay AID248 (DTP/NCI, 2004)
